Assays:
[1] = tested on: Tyrosine-protein kinase ABL1 (Homo sapiens), P00519 [F317I]
[2] = target: Cyclin-dependent kinase-like 5 (Homo sapiens) (UniProt O76039)
[3] = target: Death-associated protein kinase 1 (Homo sapiens) (UniProt P53355)
[4] = target: Mitogen-activated protein kinase kinase kinase kinase 1 (Homo sapiens) (UniProt Q92918)
[5] = target: T1, Inhibitor of nuclear factor kappa-B kinase subunit epsilon (Homo sapiens) (UniProt Q14164)
T1 sequence (whole entry): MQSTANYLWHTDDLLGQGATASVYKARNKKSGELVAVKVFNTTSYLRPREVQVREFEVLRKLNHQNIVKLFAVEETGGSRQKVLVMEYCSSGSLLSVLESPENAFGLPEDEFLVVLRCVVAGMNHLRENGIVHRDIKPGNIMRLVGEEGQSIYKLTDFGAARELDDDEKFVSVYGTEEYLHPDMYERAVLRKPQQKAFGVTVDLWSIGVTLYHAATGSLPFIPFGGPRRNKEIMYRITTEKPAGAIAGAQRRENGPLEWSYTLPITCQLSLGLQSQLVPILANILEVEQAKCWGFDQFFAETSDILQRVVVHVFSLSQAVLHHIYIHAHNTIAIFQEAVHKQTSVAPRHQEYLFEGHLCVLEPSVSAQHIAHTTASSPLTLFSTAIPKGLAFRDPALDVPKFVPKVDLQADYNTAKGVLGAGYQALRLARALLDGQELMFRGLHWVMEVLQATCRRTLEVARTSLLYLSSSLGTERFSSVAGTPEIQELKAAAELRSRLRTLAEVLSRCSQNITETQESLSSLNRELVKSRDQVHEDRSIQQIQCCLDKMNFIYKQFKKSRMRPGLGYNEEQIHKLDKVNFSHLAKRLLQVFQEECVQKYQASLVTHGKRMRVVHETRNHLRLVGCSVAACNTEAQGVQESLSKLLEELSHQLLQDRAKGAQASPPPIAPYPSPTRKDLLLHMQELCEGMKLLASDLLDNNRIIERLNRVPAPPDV

[6] = target: Mitogen-activated protein kinase kinase kinase 4 (Homo sapiens) (UniProt Q9Y6R4)
[7] = target: cAMP-dependent protein kinase catalytic subunit alpha (Homo sapiens) (UniProt P17612)
[8] = target: T2, Serine/threonine-protein kinase D1 (Homo sapiens) (UniProt Q15139)
T2 sequence (whole entry): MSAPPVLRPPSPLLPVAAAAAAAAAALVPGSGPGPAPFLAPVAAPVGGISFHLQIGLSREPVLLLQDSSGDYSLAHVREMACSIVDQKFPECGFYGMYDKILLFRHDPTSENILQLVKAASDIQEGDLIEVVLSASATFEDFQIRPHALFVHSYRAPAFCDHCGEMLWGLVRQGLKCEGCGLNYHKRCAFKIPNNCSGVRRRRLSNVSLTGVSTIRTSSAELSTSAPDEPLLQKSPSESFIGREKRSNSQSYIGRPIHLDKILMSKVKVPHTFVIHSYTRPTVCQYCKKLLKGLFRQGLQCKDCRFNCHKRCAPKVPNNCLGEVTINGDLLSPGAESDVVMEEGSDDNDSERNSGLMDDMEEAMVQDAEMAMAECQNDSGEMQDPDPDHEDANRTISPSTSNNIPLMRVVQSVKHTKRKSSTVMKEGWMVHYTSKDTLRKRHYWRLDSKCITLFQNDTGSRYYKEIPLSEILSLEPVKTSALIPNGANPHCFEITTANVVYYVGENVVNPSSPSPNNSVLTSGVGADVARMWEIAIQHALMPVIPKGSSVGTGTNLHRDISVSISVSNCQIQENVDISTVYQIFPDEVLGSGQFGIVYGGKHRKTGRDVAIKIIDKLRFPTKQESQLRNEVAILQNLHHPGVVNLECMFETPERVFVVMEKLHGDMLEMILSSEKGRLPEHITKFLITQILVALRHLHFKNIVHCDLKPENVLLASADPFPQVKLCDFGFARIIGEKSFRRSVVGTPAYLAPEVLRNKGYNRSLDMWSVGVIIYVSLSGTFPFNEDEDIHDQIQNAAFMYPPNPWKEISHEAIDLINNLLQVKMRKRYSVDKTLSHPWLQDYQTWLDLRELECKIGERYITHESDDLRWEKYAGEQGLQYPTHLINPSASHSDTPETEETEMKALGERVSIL

[9] = target: Interferon-induced, double-stranded RNA-activated protein kinase (Homo sapiens) (UniProt P19525)
Chain of Interferon-induced, double-stranded RNA-activated protein kinase (Homo sapiens) (P19525 whole entry): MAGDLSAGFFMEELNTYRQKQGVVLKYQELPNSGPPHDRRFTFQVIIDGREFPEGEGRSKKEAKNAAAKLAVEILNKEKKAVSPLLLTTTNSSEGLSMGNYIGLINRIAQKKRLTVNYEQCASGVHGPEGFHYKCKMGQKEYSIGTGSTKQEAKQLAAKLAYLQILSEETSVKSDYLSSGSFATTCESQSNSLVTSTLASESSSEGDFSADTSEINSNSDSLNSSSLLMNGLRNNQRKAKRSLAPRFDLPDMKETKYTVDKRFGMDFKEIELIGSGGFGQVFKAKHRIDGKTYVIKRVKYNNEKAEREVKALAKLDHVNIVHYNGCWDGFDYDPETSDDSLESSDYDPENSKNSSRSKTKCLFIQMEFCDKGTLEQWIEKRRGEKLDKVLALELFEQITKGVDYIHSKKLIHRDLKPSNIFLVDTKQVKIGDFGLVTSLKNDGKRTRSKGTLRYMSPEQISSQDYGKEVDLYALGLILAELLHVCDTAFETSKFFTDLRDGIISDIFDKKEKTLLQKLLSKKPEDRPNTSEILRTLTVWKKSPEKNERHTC

[10] = target: Activated CDC42 kinase 1 (Homo sapiens) (UniProt Q07912)
[11] = target: D(1B) dopamine receptor (Homo sapiens) (UniProt P21918); settings: Compound concentration 10.0 uM
Chain of D(1B) dopamine receptor (Homo sapiens) (P21918 whole entry): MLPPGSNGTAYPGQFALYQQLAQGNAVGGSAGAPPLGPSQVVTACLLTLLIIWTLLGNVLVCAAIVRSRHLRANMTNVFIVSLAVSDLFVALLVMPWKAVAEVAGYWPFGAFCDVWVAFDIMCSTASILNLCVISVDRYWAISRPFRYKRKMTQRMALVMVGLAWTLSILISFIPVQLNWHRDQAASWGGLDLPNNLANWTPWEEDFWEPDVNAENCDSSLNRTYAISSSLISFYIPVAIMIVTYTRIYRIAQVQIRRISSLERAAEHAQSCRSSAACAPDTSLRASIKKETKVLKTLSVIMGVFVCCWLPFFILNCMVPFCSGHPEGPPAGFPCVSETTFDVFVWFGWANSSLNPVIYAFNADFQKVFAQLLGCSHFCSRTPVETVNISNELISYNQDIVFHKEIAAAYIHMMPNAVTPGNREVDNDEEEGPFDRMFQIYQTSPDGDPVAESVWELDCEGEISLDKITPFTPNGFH

[12] = Compound concentration 100.0 nM
[13] = Compound concentration 1000.0 nM

Chain of Tyrosine-protein kinase ABL1 (Homo sapiens), P00519 [F317I] (P00519 whole entry F317I): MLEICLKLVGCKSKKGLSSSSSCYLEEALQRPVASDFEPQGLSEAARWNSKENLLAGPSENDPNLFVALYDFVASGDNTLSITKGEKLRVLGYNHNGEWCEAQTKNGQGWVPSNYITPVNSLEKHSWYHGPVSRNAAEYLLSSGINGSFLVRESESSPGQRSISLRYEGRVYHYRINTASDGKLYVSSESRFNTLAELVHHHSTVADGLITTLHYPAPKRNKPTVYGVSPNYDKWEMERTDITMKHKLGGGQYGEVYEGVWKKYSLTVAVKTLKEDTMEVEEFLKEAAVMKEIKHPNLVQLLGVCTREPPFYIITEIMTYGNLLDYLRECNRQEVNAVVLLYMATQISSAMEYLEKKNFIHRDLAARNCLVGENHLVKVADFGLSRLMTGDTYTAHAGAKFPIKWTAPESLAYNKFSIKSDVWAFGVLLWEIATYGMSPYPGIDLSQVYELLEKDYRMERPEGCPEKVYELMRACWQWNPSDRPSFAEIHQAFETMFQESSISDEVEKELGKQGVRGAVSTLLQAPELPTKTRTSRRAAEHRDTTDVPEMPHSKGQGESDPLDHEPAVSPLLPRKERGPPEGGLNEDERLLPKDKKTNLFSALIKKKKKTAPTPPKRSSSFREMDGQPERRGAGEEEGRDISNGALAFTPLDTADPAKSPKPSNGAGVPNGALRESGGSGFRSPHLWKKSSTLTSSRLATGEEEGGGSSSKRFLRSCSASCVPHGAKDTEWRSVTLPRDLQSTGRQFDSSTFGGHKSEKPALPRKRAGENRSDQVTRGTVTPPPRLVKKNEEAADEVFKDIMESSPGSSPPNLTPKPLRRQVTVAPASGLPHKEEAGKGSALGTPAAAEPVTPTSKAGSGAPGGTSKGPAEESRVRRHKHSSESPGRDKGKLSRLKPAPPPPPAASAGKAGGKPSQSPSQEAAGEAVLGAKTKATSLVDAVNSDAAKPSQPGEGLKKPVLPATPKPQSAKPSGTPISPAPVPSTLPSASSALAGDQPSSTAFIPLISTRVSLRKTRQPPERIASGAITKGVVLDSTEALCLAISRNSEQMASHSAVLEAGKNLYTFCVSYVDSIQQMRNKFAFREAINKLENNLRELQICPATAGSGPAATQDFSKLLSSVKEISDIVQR
Chain of Cyclin-dependent kinase-like 5 (Homo sapiens) (O76039 whole entry): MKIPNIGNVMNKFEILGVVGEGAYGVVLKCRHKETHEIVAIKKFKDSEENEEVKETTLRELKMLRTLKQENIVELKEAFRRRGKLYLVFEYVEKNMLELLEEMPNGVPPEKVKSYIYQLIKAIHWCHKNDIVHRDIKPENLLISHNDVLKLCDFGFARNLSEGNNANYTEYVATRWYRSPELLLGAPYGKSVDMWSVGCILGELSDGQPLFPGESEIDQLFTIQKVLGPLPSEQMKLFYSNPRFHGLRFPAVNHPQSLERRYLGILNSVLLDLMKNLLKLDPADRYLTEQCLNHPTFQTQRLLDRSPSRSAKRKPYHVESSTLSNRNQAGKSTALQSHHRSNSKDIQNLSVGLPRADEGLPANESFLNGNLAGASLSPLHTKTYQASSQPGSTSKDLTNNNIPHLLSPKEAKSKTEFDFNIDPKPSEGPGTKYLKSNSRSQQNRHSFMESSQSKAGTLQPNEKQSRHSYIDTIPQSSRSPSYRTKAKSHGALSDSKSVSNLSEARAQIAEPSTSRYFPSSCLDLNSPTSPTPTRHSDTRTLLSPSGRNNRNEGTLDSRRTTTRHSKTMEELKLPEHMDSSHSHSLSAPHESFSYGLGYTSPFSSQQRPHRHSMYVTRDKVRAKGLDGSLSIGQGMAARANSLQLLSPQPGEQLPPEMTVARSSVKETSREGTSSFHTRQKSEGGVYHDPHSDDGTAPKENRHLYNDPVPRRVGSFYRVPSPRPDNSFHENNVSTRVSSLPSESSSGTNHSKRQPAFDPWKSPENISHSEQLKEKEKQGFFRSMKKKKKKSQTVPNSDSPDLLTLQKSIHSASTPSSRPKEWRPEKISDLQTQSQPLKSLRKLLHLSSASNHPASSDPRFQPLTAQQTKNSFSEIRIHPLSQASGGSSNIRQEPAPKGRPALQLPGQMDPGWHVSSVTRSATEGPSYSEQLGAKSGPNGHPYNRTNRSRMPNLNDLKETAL
Chain of Death-associated protein kinase 1 (Homo sapiens) (P53355 whole entry, looked up): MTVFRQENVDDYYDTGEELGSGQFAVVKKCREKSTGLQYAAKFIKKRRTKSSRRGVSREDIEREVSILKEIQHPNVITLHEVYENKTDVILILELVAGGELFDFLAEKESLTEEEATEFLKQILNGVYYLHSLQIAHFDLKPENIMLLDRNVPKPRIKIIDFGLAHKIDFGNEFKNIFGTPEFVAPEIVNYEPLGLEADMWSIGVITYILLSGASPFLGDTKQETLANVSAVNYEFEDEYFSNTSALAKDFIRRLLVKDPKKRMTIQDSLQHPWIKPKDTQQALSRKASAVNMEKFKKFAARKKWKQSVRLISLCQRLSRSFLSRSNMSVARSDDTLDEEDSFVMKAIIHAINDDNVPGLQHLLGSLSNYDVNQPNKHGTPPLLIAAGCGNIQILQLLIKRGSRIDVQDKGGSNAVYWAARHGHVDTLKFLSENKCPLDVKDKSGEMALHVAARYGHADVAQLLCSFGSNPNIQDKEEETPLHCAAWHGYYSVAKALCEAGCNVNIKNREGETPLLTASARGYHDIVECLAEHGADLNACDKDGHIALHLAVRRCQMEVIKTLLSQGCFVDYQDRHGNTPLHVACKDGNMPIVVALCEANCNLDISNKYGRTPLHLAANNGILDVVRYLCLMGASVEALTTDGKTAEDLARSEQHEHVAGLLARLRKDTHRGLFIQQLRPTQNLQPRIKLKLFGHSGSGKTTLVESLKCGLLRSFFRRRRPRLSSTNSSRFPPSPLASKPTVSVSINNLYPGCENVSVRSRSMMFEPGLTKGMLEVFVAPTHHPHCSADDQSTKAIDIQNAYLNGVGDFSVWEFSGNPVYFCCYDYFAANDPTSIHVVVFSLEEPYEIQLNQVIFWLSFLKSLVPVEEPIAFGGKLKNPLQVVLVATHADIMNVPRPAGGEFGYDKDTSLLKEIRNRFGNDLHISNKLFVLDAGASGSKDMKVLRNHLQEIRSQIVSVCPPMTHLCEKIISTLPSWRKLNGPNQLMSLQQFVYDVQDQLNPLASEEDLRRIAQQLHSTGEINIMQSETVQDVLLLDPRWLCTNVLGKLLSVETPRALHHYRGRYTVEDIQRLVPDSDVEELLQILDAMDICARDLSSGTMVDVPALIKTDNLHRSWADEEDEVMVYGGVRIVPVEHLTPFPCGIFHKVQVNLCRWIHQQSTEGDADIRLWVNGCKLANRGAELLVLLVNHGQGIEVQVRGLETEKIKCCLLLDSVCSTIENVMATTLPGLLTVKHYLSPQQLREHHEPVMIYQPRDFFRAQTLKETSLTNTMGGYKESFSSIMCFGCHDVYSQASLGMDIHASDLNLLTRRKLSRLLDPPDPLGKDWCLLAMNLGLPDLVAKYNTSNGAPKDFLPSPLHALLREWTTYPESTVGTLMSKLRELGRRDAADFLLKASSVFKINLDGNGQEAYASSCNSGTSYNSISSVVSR

C[C@@H]1CN(c2cc(-c3n[nH]c4ccc(OC5(C)CC5)cc34)ncn2)C[C@H](C)O1 [MLi-2]
inactive: residual activity [1, 12] 74% | residual activity [2, 12] 72% | residual activity [3, 12] 93% | residual activity [4, 12] 84% | residual activity [5, 12] 74% | residual activity [6, 12] 100% | residual activity [7, 12] 85% | residual activity [8, 12] 84% | residual activity [9, 12] 100% | residual activity [10, 12] 79% | inhibition [11] 16.1%

C[C@@H]1CN(c2cc(-c3nn(C)c4ccc(OC5(C)CC5)cc34)ncn2)C[C@H](C)O1 [MLi-2-NC]
inactive: residual activity [1, 13] 62% | residual activity [2, 13] 64% | residual activity [3, 13] 100% | residual activity [4, 13] 100% | residual activity [5, 13] 65% | residual activity [6, 13] 100% | residual activity [7, 13] 95% | residual activity [8, 13] 82% | residual activity [9, 13] 100% | residual activity [10, 13] 96% | inhibition [11] 3.61%
